biological target: T1, ATM protein immunoprecipitated from HeLa cell nuclear extract (Homo sapiens, UniProt Q13315); assay: In vitro ATM inhibition assay (phosphorylation of GSTp53N66 on serine 15, chemiluminescent detection); format: biochemical; conditions: read-out: IC50 values (the concentration at which 50% of the enzyme activity is inhibited), ATM inhibition; note: tested normally from 100 µM down to 0.1 nM
T1 construct: ATM protein was immunoprecipitated from HeLa cell nuclear extract; endogenous in cells; host or cells: HeLa cell nuclear extract (immunoprecipitated with rabbit polyclonal anti-ATM antiserum)
Method in brief: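 Immunoprecipitated HeLa nuclear ATM (C-terminal anti-sera) with GSTp53N66 substrate in Hepes pH 7.4 buffer with MgCl2/MnCl2; inhibitor preincubated 10 min at 37 °C, then Na-ATP added, 1 h at 37 °C.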

T1 sequence (Q13315 whole entry): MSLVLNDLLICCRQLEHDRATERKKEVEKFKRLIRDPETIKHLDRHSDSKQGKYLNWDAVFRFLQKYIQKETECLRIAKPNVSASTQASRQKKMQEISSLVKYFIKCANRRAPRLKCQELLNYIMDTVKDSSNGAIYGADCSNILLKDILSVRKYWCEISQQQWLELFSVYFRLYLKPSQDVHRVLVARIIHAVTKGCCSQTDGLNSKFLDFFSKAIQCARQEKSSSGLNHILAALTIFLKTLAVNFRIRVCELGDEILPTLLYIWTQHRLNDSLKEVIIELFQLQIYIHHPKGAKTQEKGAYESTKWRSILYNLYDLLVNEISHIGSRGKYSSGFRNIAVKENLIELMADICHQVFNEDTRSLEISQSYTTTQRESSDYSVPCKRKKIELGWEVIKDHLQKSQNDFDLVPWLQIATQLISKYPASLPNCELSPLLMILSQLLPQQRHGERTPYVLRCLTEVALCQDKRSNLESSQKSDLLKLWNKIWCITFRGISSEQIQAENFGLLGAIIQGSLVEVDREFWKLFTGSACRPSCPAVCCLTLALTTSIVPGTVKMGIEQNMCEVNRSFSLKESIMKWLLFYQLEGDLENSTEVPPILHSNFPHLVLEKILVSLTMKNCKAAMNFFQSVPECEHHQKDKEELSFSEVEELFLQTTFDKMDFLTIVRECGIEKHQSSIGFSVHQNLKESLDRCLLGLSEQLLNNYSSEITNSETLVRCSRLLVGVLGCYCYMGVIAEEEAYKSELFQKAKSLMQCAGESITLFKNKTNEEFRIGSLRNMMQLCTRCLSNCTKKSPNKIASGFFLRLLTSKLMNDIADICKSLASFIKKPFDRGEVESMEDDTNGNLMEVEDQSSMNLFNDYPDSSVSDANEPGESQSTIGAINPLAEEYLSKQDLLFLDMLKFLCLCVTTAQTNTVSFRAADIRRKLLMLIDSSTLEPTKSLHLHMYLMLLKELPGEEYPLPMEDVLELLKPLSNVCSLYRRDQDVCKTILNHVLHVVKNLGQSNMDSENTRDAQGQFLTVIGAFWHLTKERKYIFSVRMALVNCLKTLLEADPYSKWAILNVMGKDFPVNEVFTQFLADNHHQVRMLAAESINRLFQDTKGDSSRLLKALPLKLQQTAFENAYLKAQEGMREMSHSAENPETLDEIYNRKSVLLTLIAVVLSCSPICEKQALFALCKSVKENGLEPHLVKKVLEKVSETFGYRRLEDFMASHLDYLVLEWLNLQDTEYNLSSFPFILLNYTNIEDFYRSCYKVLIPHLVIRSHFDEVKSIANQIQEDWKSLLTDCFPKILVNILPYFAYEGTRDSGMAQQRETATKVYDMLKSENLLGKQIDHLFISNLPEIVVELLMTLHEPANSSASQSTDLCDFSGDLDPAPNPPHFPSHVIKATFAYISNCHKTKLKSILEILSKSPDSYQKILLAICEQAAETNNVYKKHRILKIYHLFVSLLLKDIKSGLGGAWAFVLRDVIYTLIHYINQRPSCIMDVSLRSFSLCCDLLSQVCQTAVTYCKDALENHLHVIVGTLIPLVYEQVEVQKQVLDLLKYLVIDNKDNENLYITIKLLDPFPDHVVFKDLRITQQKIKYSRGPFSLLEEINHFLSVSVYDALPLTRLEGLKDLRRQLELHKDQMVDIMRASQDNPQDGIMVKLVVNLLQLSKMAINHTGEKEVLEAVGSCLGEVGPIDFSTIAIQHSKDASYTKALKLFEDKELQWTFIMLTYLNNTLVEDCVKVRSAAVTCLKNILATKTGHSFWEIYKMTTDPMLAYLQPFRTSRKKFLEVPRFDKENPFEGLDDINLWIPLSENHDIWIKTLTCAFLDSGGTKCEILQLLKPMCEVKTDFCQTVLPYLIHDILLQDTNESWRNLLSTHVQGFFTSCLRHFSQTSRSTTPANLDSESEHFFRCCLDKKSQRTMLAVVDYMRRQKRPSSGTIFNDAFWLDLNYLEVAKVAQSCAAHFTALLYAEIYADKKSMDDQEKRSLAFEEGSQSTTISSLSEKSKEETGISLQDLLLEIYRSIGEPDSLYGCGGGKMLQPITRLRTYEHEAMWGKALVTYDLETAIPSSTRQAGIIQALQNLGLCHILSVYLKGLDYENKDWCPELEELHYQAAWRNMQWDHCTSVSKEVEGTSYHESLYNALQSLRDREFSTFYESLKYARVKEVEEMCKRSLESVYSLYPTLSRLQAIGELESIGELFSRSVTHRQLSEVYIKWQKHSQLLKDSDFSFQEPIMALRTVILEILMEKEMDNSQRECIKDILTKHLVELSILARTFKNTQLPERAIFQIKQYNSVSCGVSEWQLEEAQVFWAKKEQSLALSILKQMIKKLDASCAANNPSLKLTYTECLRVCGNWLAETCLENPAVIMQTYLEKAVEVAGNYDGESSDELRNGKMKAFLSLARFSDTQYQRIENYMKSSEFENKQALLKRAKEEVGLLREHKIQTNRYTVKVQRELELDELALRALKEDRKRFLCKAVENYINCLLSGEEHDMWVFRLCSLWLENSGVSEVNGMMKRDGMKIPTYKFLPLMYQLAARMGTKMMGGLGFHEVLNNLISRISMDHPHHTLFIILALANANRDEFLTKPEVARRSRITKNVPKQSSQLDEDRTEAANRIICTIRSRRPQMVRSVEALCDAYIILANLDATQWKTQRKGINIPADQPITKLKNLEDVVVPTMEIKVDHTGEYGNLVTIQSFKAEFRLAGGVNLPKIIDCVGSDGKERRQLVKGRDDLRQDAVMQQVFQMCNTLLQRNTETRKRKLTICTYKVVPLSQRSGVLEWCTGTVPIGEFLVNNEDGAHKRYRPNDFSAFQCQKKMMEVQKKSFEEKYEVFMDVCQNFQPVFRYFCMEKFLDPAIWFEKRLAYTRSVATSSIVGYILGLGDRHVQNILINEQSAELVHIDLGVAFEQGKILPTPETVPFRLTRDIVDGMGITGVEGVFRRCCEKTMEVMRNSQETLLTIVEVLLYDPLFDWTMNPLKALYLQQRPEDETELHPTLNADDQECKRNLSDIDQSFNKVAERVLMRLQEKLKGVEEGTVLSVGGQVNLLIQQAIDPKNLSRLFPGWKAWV

IC50, < 200 nM:
CN(C)CC(=O)Nc1ccc2c(c1)Sc1cccc(-c3cc(=O)cc(N4CCOCC4)o3)c1S2 [Compound 69]
O=c1cc(-c2cccc3c2Sc2ccccc2N3CCCN2CCN(CCOCCO)CC2)oc(N2CCOCC2)c1 [Compound 292]
CN1CCN(C(=O)COc2ccc3c(c2)Sc2cccc(-c4cc(=O)cc(N5CCOCC5)o4)c2S3)CC1 [Compound 450]
O=C(c1ccc2c(c1)Sc1cccc(-c3cc(=O)cc(N4CCOCC4)o3)c1S2)N1CCN(c2ccncc2)CC1 [Compound 9]
CCN1CCCC1CNCC(=O)Nc1ccc2c(c1)Sc1cccc(-c3cc(=O)cc(N4CCOCC4)o3)c1S2 (stereo not drawn) [Compound 87]
Nc1ccc2c(c1)Sc1cccc(-c3cc(=O)cc(N4CCOCC4)o3)c1S2 [Compound 21, 2-(7-Amino-thianthren-1-yl)-6-morpholin-4-yl-pyran-4-one]
CN1CCN(S(=O)(=O)c2ccc3c(c2)Cc2cccc(-c4cc(=O)cc(N5CCOCC5)o4)c2S3)CC1 [Compound 480]
O=C(c1ccc2c(c1)Sc1cccc(-c3cc(=O)cc(N4CCOCC4)o3)c1S2)N1CCN(c2ccccn2)CC1 [Compound 8]
COCCN(CCOC)C(=O)COc1ccc2c(c1)Sc1cccc(-c3cc(=O)cc(N4CCOCC4)o3)c1S2 [Compound 445]
CCCCNCCOc1ccc2c(c1)Sc1cccc(-c3cc(=O)cc(N4CCOCC4)o3)c1S2 [Compound 382]
COCCN1CCN(CC(=O)Nc2ccc3c(c2)Cc2cccc(-c4cc(=O)cc(N5CCOCC5)o4)c2S3)CC1 [Compound 339]
O=C(COc1ccc2c(c1)Sc1cccc(-c3cc(=O)cc(N4CCOCC4)o3)c1S2)NCCN1CCNC1=O [Compound 441]
O=C(CN1CCN(c2ncccn2)CC1)Nc1ccc2c(c1)Sc1cccc(-c3cc(=O)cc(N4CCOCC4)o3)c1S2 [Compound 84]
O=c1cc(-c2cccc3c2Sc2ccc(OCCNCC(F)(F)F)cc2S3)oc(N2CCOCC2)c1 [Compound 379]
O=C(CCN1CCCCC1)Nc1ccc2c(c1)Sc1cccc(-c3cc(=O)cc(N4CCOCC4)o3)c1S2 [Compound 92]
CCN1CCCC1CNCCC(=O)Nc1ccc2c(c1)Sc1cccc(-c3cc(=O)cc(N4CCOCC4)o3)c1S2 (stereo not drawn) [Compound 126]
O=c1cc(-c2cccc3c2Sc2ccccc2N3CCCNCC2CCCCC2)oc(N2CCOCC2)c1 [Compound 253]
CCOCCCNCCCN1c2ccccc2Sc2c(-c3cc(=O)cc(N4CCOCC4)o3)cccc21 [Compound 286]
O=c1cc(-c2ccc(OCCN3CCCCCC3)c3c2Sc2ccccc2S3)oc(N2CCOCC2)c1 [Compound 148]
CC(=O)N1CCN(CCC(=O)Nc2ccc3c(c2)Cc2cccc(-c4cc(=O)cc(N5CCOCC5)o4)c2S3)CC1 [Compound 349]
CCN(CCC(=O)Nc1ccc2c(c1)Sc1cccc(-c3cc(=O)cc(N4CCOCC4)o3)c1S2)Cc1ccccc1 [Compound 111]
O=C(COc1ccc2c(c1)Sc1cccc(-c3cc(=O)cc(N4CCOCC4)o3)c1S2)N[C@@H](CO)C(=O)OCc1ccccc1 [Compound 424]
CC(C)N1CCN(CCC(=O)Nc2ccc3c(c2)Cc2cccc(-c4cc(=O)cc(N5CCOCC5)o4)c2S3)CC1 [Compound 351]
CC(C)NC(=O)CN1CCN(CCCN2c3ccccc3Sc3c(-c4cc(=O)cc(N5CCOCC5)o4)cccc32)CC1 [Compound 296]
O=C(CCN1CCCC1)Nc1ccc2c(c1)Sc1cccc(-c3cc(=O)cc(N4CCOCC4)o3)c1S2 [Compound 98]
O=C(CCN1CCCNCC1)Nc1ccc2c(c1)Sc1cccc(-c3cc(=O)cc(N4CCOCC4)o3)c1S2 [Compound 100]
O=c1cc(-c2cccc3c2Sc2ccccc2N3CCCNCc2cccnc2)oc(N2CCOCC2)c1 [Compound 267]
O=C(CCNCC1CCCO1)Nc1ccc2c(c1)Sc1cccc(-c3cc(=O)cc(N4CCOCC4)o3)c1S2 (stereo not drawn) [Compound 107]
O=C(Nc1ccc2c(c1)Sc1cccc(-c3cc(=O)cc(N4CCOCC4)o3)c1S2)c1csc(-c2cccs2)n1 [Compound 46]
CC(=O)Oc1ccccc1C(=O)Nc1ccc2c(c1)Sc1cccc(-c3cc(=O)cc(N4CCOCC4)o3)c1S2 [Compound 39]
O=c1cc(-c2cccc3c2Sc2ccc(S(=O)(=O)NCCO)cc2C3)oc(N2CCOCC2)c1 [Compound 484]
O=C(CN(CCO)CCO)Nc1ccc2c(c1)Sc1cccc(-c3cc(=O)cc(N4CCOCC4)o3)c1S2 [Compound 55]
CCCNCCOc1ccc2c(c1)Cc1cccc(-c3cc(=O)cc(N4CCOCC4)o3)c1S2 [Compound 537]
CCN(CC)CCCNCCCN1c2ccccc2Sc2c(-c3cc(=O)cc(N4CCOCC4)o3)cccc21 [Compound 277]
O=C(COc1ccc2c(c1)Cc1cccc(-c3cc(=O)cc(N4CCOCC4)o3)c1S2)N1CCNCC1 [Compound 528]
O=C(CN1CCN(c2ncccn2)CC1)Nc1ccc2c(c1)Cc1cccc(-c3cc(=O)cc(N4CCOCC4)o3)c1S2 [Compound 345]
O=C(Nc1ccc2c(c1)Sc1cccc(-c3cc(=O)cc(N4CCOCC4)o3)c1S2)c1cccs1 [Compound 32]
O=C(c1ccc2c(c1)Sc1cccc(-c3cc(=O)cc(N4CCOCC4)o3)c1S2)N1CCN(C(=O)c2ccco2)CC1 [Compound 18]
CN(CCOc1ccc2c(c1)Sc1cccc(-c3cc(=O)cc(N4CCOCC4)o3)c1S2)CCc1ccccn1 [Compound 398]
O=C(CCN1CCN(c2ccccn2)CC1)Nc1ccc2c(c1)Sc1cccc(-c3cc(=O)cc(N4CCOCC4)o3)c1S2 [Compound 120]
O=c1cc(-c2cccc3c2Sc2ccc(S(=O)(=O)N4CCCCC4)cc2C3)oc(N2CCOCC2)c1 [Compound 485]
CC(C)NC(=O)CN1CCN(C(=O)c2ccc3c(c2)Sc2cccc(-c4cc(=O)cc(N5CCOCC5)o4)c2S3)CC1 [Compound 14]
O=c1cc(-c2cccc3c2Sc2ccc(S(=O)(=O)NCC4CCCO4)cc2C3)oc(N2CCOCC2)c1 (stereo not drawn) [Compound 455]
CCOC(=O)CN1CCN(CCCN2c3ccccc3Sc3c(-c4cc(=O)cc(N5CCOCC5)o4)cccc32)CC1=O [Compound 299]
Cn1nc(O)cc1C(=O)Nc1ccc2c(c1)Sc1cccc(-c3cc(=O)cc(N4CCOCC4)o3)c1S2 [Compound 37]
CC(C)N1CCN(CCC(=O)Nc2ccc3c(c2)Sc2cccc(-c4cc(=O)cc(N5CCOCC5)o4)c2S3)CC1 [Compound 118]
Cc1noc(C)c1C(=O)Nc1ccc2c(c1)Sc1cccc(-c3cc(=O)cc(N4CCOCC4)o3)c1S2 [Compound 35]
N#CCNC(=O)COc1ccc2c(c1)Sc1cccc(-c3cc(=O)cc(N4CCOCC4)o3)c1S2 [Compound 409]
O=c1cc(-c2cccc3c2Sc2ccccc2N3CCCNCC2CCCCCC2O)oc(N2CCOCC2)c1 (stereo not drawn) [Compound 326]
O=C(COc1ccc2c(c1)Sc1cccc(-c3cc(=O)cc(N4CCOCC4)o3)c1S2)N1CCCCC1 [Compound 440]
O=C(COc1ccc2c(c1)Sc1cccc(-c3cc(=O)cc(N4CCOCC4)o3)c1S2)N(CCO)CCO [Compound 444]

Reference: patent US7429660B2, “ATM inhibitors” (Kudos Pharmaceuticals Limited, priority 2003, dated 2008)
